Results reported in patent US6677456B2, “Pentacyclic taxan compound” (Daiichi Pharmaceutical Co., Ltd., priority 1999, dated 2004).
Where two headings read alike, the source gives them in different places.

Legend:
B16 Melanoma BL6 = assay: Antitumor test, B16 Melanoma BL6 subcutaneously transplanted into mice (Test Example 2); assay type: in vivo, mice (C57BL/6); conditions: 4 days after transplantation, tumor weight after 15 days
Method: B16 Melanoma BL6 was subcutaneously transplanted into mice (C57BL/6), and each compound was administered 4 days thereafter. […] In the case of oral administration, each compound was administered by suspending it in a 0.5% carboxymethylcellulose sodium aqueous solution. Each animal was anatomized after 15 days of the transplantation to measure tumor weight. Antitumor effect was calculated by the following formula.
(§1) {1−(tumor weight of compound-administered group/tumor weight of solvent-administered group)}×100
Six mice were used in each group.

[1] = Platelet numbers, renal toxicity findings and deaths in the Meth A-bearing mice (Test Example 1); assay type: in vivo, mice (Balb/c); conditions: intravenous, 17th day; for Platelet numbers: % of solvent-administered group
Method: (§2) Mouse fibrosarcoma Meth A was subcutaneously transplanted into mice (line name; Balb/c), and each compound dissolved in a mixed solvent of ethanol, Tween 80 and 5% glucose (5:5:90 (v/v)) was administered by intravenous injection after 6, 8 or 10 days (or only after 6 days) of the transplantation. Each animal was anatomized on the 17th day to examine tumor weight, platelet numbers and renal toxicity. Six mice were used in each group.
The number of platelets was expressed by (platelets of compound-administered group/platelets of solvent-administered group)×100.
The renal toxicity findings were expressed as “changed” when a change such as fading was found by macroscopic observation at the time of anatomy or when a change such as precipitation of hyaline droplet substance in the renal tubular cell cytoplasm was found by a histological inspection.

[2] = Blood concentration and oral BA in monkey after single intravenous or oral dose (Test Example 4); assay type: in vivo, female Macaca irus (monkey); conditions: for Oral BA: ratio of oral AUC to intravenous AUC; for AUC(0-inf): female, Macaca irus (cynomolgus), blood
Method: The AUCO0-∞ means area under the blood concentration time curve of a drug concentration in blood during a period of from the time of administration (0 h) to the infinite time and it can be calculated in accordance with the method (trapezoidal rule) disclosed in Kiyoshi Yamaoka and Yusuke Tanigawara, Yakubutsu Sokudoron Nyumon (A Guide to Pharmacokinetics), pages 116-117. In addition, ratio of the AUC at the time of oral administration to the AUC at the time of intravenous administration was calculated as oral BA.
Animal: female Macaca irus, Administration method (compound of formula (B)) [intravenous] EtOH:Tween 80:5% glucose=5:5:90, [oral] […] 10% β-CyD-SBE7 (pH=3.5 in physiological saline), [oral] 40 mM acetate buffer (pH 4.0)

[3] = system: Mouse fibrosarcoma Meth A; assay: Antitumor test, mouse fibrosarcoma Meth A subcutaneously transplanted into mice (Test Example 1); assay type: in vivo, mice (Balb/c); conditions: intravenous, tumor weight on 17th day
Method: as §2
Antitumor effect was calculated by the following formula.
as §1

human liver microsome = assay: Metabolism in Human Microsome P450 (Test Example 3)
Method: Each of the samples to be evaluated was dissolved in acetonitrile/water (1:1, v/v) to a concentration of 500 μM, and the solution was mixed with human liver microsome (Xenotech LLC) and other components such as various coenzymes and buffer solution and allowed to generate the metabolic reaction at 37° C. The reaction solution was composed of phosphate buffer (0.076 M; final concentration, the same shall apply hereinafter), sample to be evaluated (10 μM), human liver microsome (1 mg/ml), glucose 6-phosphate (10 mM), glucose-6-phosphate dehydrogenase (1 unit/ml), magnesium chloride (4 mM) and reduced nicotinamide adenine dinucleotide phosphate (β-NADPH, 1 mM), and 500 μl of the solution was used in one reaction. In this case, the reaction solution excluding β-NADPH was incubated in advance at 37° C. for 2 minutes and then the reaction was started by adding a β-NADPH aqueous solution (50 mM, 10 μl).
The reaction was terminated by adding 1 ml of ice-cooled acetonitrile 1, 2 or 5 minutes after commencement of the reaction.
In this connection, a sample of 0 minute after commencement of the reaction was prepared by adding water instead of the β-NADPH aqueous solution and immediately adding 1 ml of acetonitrile. A 100 μl portion of an internal standard substance was added to each of these samples, and the reaction solution was centrifuged for 15 minutes. The resulting supernatant was injected into a high performance liquid chromatography (HPLC) to measure concentration of the sample to be evaluated. […] By plotting the amount of formed metabolite against the reaction time and carrying out linear regression by the method of least squares, amount of the metabolite formed per 1 minute (metabolic rate constant: k (nmol/min/mg protein)) was calculated from the slope.
From the thus obtained metabolic rate constant k (nmol/min/mg protein), the liver-specific clearance (CLint) was calculated by the following formula. […]
Theoretical bioavailability (F) value was calculated from the CLh by the following formula.

Work on `CC(=O)O[C@@]12CO[C@@H]1C[C@H](O)[C@@]1(C)C(=O)[C@H](O)C3=C(C)[C@@H](OC(=O)[C@H](O)[C@@H](NC(=O)OC(C)(C)C)c4ccccc4)C[C@@](O)([C@@H](OC(=O)c4ccccc4)[C@H]21)C3(C)C` [(A), taxotere] yielded an Antitumor effect (B16 Melanoma BL6; 180.0 mg/kg intravenous) of 95.7% and an Antitumor effect (B16 Melanoma BL6; 600.0 mg/kg oral) of 6.2%.
In the case of `CC(=O)O[C@@]12CO[C@@H]1CC[C@@]1(C)[C@@H]3O[C@H](CN4CCOCC4)O[C@@H]3C3=C(C)[C@@H](OC(=O)[C@H](O)[C@@H](NC(=O)OC(C)(C)C)c4ccccn4)C[C@@](O)([C@@H](OC(=O)c4ccccc4)[C@@H]12)C3(C)C` [Compound (B)], the Platelet numbers ([1]; 22.5 mg/kg × 1) is reported as 124%, the Renal toxicity findings ([1]; 32.4 mg/kg × 1) is reported as “no change” and the Platelet numbers ([1]; 32.4 mg/kg × 1) is reported as 142%. The Antitumor effect (B16 Melanoma BL6; 13.3 mg/kg oral) was 90.5%, the Antitumor effect (B16 Melanoma BL6; 20.0 mg/kg oral) was 97.4% and the “Oral BA” value ([2]; 1.6 mg/kg) was 7.1%. The AUC(0-inf) ([2]; single dose 1.6 mg/kg intravenous, one monkey, read-out: AUC0-∞ Intravenous) was 394 ng·h/mL, the AUC(0-inf) ([2]; single dose 1.6 mg/kg oral, one monkey (different individual), read-out: AUC0-∞ Oral) was 28.1 ng·h/mL and the “Oral absorption property in monkey (in words)” value ([2]; in vivo, po) was “low”. It also gave an Antitumor effect ([3]; 22.5 mg/kg × 1 (day 6)) of 69% and an Antitumor effect ([3]; 32.4 mg/kg × 1 (day 6), three deaths among 6 animals) of 83%.
In the case of `COc1ccc([C@H](NC(=O)OC(C)(C)C)[C@@H](O)C(=O)O[C@H]2C[C@@]3(O)[C@@H](OC(=O)c4ccccc4)[C@H]4[C@@](C)(CC[C@H]5OC[C@]54OC(C)=O)[C@@H]4O[C@H](CN5CCOCC5)O[C@@H]4C(=C2C)C3(C)C)nc1` [Example 1, (1S,2S,3R,4S,5R,8R,9S,10R,13S)-4-Acetoxy-2-benzoyloxy-5,20-epoxy-1-hydroxy-9,10-[(1S)-2-(morpholino)ethylidenedioxy]tax-11-en-13-yl (2R,3S)-3-(tert-butoxycarbonylamino)-2-hydroxy-3-(5-methoxy-2-pyridyl)propionate], the melting point is reported as 160 to 161 °C.
With `CC(=O)O[C@@]12CO[C@@H]1CC[C@@]1(C)[C@@H]3O[C@H](CN(C)C)O[C@@H]3C3=C(C)[C@@H](OC(=O)[C@H](O)[C@@H](NC(=O)OC(C)(C)C)c4ncccc4F)C[C@@](O)([C@@H](OC(=O)c4ccccc4)[C@@H]12)C3(C)C` [Example 7, (1S,2S,3R,4S,5R,8R,9S,10R,13S)-4-Acetoxy-2-benzoyloxy-9,10-[(1S)-2-(dimethylamino)ethylidenedioxy]-5,20-epoxy-1-hydroxytax-11-en-13-yl (2R,3S)-3-(tert-butoxycarbonylamino)-3-(3-fluoro-2-pyridyl)-2-hydroxypropionate] the Antitumor effect (B16 Melanoma BL6; 7.9 mg/kg intravenous) was 91.5%, the Antitumor effect (B16 Melanoma BL6; 7.9 mg/kg oral) was 91.5% and the Antitumor effect (B16 Melanoma BL6; 11.9 mg/kg intravenous) was 95.5%. The Antitumor effect (B16 Melanoma BL6; 11.9 mg/kg oral) was 97.4%, the “Oral BA” value ([2]; 1.8 mg/kg) was 62.4% and the AUC(0-inf) ([2]; single dose 1.8 mg/kg intravenous, average of 4 monkeys, read-out: AUC0-∞ Intravenous) was 994 ng·h/mL. For the same compound, the AUC(0-inf) ([2]; single dose 1.8 mg/kg oral, average of 4 monkeys, read-out: AUC0-∞ Oral) was 621 ng·h/mL.
In the case of “(1S,2S,3R,4S,5R,8R,9S,10R,13S)-4-Acetoxy-2-benzoyloxy-5,20-epoxy-1-hydroxy-9,10-[(1S)-2-(morpholino)ethylidenedioxy]tax-11-en-13-yl (2R,3S)-3-(tert-butoxycarbonylamino)-3-(5-fluoro-2-pyridyl)-2-hydroxypropionate [Example 3]”, the “Theoretical F value of unchanged compound” value (human liver microsome; calculated from CLh (Well-stirred model, Q 20 ml/min/kg)) is reported as 0.92, the Metabolic rate constant (human liver microsome; human liver microsome 1 mg/ml, sample 10 μM, 37° C., 0-5 minutes) is reported as 0.02 nmol/min/mg protein and the Clint (human liver microsome; liver-specific clearance calculated from the metabolic rate constant) is reported as 1.8 mL/min/kg.
